The values below come from patent publication US12350475B2 (SUN PHARMACEUTICAL INDUSTRIES LIMITED, priority 2020, dated 2025).

The nature of data set [1]: pharmacokinetics of octreotide after subcutaneous injection. From the text: (§1) For patients with acromegaly, there may be a different pharmacokinetic profile.
A short description of data set [2]: pharmacokinetics of octreotide after subcutaneous dosing in patients with acromegaly.
Source text: as §1

Data set [3] can be described thus: distribution of octreotide in blood (erythrocytes, plasma binding).
Source text: as §1

Counter-ions that a name gives are not always drawn.

`C[C@@H](O)[C@@H]1NC(=O)[C@H](CCCCN)NC(=O)[C@@H](Cc2c[nH]c3ccccc23)NC(=O)[C@H](Cc2ccccc2)NC(=O)[C@@H](NC(=O)[C@H](N)Cc2ccccc2)CSSC[C@@H](C(=O)N[C@H](CO)[C@@H](C)O)NC1=O` (relative stereo) [octreotide, L-cysteinamide, D-phenylalanyl-L-cysteinyl-L-phenylalanyl-D-tryptophyl-L-lysyl-L-threonyl-N-[2-hydroxy-1-(hydroxymethyl)propyl]-, cyclic (2#7)-disulfide; [R—(R*, R*)] acetate salt]: the “absorption from the injection site” value in data set [1] (after subcutaneous injection) is “absorbed completely”. In data set [1] (human, plasma, subcutaneous), this compound showed a Vd of approximately 13.6 L and a clearance of 117 to 167 mL/min. The “dose proportionality of peak concentrations and area under the curve values” in data set [1] (subcutaneous single doses up to 500 μg and multiple doses up to 500 μg three times a day (1,500 μg/day)) was “dose proportional”. For the same compound, in data set [1] (subcutaneous, dose of 100 μg), the peak concentration result is reported as “about 5.2 ng/mL” and the “time to peak concentration after dosing” value stood at 0.4 h. Also, in data set [2] (human, in vivo, subcutaneous), the Vd is approximately 21.6 L and the clearance is approximately 300 mL/min. Also, the “time to mean peak concentration after subcutaneous dosing” value in data set [2] (patients with acromegaly, 100 μg dose) is reported as “about 0.7 hours”. Besides, the mean peak concentration entry in data set [2] (patients with acromegaly, subcutaneous, 100 μg dose) is listed as “about 2.8 ng/mL”. Also, in data set [3] (concentration-independent manner), the “bound in the plasma” value was “about 65%”. Moreover, in data set [3] (in blood), the “distribution into the erythrocytes” value is given as “negligible”.
